Like-named read-outs stand apart in the source and are kept apart here. Bounds are passed on as bounds.

Assay [1] addresses human orexin 2 receptor (Homo sapiens (Human), UniProt O43614). Put plainly: Human orexin 2 receptor radioligand binding ([3H]-EMPA competition, HEK293 membranes).
The target in assay [2] is rat orexin 1 receptor (Rattus norvegicus (Rat), UniProt P56718). The experiment in a line: Rat orexin 1 receptor radioligand binding (competitive binding, HEK293 membranes).
Setting [3] is: rat orexin 1 receptor, Table 2, averages from between 2-20 runs, read-out: rOX1 Ki.
Where [4] appears, read: human orexin 2 receptor, Table 2, averages from between 2-20 runs, read-out: hOX2 Ki.

Sequence of rat orexin 1 receptor (P56718 whole entry): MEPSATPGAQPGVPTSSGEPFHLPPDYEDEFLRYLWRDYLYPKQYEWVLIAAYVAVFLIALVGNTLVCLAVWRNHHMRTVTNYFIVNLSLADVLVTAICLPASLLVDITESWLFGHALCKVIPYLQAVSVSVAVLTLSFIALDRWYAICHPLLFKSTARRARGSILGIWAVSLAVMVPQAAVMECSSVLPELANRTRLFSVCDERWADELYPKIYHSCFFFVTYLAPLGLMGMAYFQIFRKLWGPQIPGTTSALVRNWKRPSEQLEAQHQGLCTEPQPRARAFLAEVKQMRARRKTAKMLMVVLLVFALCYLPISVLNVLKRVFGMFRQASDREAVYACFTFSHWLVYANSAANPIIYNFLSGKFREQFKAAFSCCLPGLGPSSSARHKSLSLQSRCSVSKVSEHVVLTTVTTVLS
Sequence of human orexin 2 receptor (O43614 whole entry): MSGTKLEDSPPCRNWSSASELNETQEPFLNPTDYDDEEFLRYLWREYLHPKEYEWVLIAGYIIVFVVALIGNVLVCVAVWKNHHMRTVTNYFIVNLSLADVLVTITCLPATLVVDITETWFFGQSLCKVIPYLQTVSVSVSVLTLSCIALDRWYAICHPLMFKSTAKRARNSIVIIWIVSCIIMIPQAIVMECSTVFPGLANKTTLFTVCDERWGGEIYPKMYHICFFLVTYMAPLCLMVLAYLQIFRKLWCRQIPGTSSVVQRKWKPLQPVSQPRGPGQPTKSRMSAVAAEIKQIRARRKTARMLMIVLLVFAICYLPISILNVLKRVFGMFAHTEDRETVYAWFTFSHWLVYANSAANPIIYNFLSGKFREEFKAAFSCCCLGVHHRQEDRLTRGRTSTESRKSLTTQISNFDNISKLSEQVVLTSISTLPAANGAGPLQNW

What is called Ki is a dissociation constant, usually derived from enzyme kinetics or from competition with a known ligand. As for `O=C(c1c(F)cccc1-n1nccn1)N1C2CCC1C(Oc1ccc(C(F)(F)F)cn1)C2` (racemic) [Example 425], the Ki in assay [1] was 5100 nM; in assay [2] (setting [3]), 587 nM.

As to `Cc1cccc(C(=O)N2[C@@H]3CC[C@H]2[C@H](Nc2cnc(C(F)(F)F)cn2)C3)c1-c1ncco1` [Example 266, (3-methyl-2-(oxazol-2-yl)phenyl)((1S,2R,4R)-2-((5-(trifluoromethyl)pyrazin-2-yl)amino)-7-azabicyclo[2.2.1]heptan-7-yl)methanone], the inhibition constant Ki in assay [2] (setting [3]) was 6 nM.

Consider `O=C(c1cccc(F)c1-n1nccn1)N1C2CCC1C(Oc1cnc3ccccc3n1)C2` (racemic) [Example 442], for which the inhibition constant (Ki) in assay [1] (setting [4]) was determined as 1900 nM; in assay [2] (setting [3]), 349 nM.

With `O=C(c1cccc(F)c1-n1nccn1)N1C2CCC1C(Oc1ncc(Br)cn1)C2` (racemic) [Example 441], the Ki in assay [1] (setting [4]) was greater than 10000 nM; in assay [2], 1500 nM.

Take `COc1ccc(C(=O)N2[C@@H]3CC[C@H]2[C@H](Nc2cnc(C(F)(F)F)cn2)C3)c(Cl)n1` [Example 413, (2-chloro-6-methoxypyridin-3-yl)((1S,2R,4R)-2-((5-(trifluoromethyl)pyrazin-2-yl)amino)-7-azabicyclo[2.2.1]heptan-7-yl)methanone]: the Ki in assay [1] (setting [4]) and in assay [2] (setting [3]) was greater than 10000 nM throughout.

As to `O=C(c1cccc(F)c1-c1ncccn1)N1[C@@H]2CC[C@H]1[C@H](Nc1nc(C(F)(F)F)cs1)C2` [Example 418, (3-fluoro-2-(pyrimidin-2-yl)phenyl)((1S,2R,4R)-2-((4-(trifluoromethyl)thiazol-2-yl)amino)-7-azabicyclo[2.2.1]heptan-7-yl)methanone], the Ki in assay [1] (setting [4]) is 2500 nM; in assay [2] (setting [3]), 459 nM.

In the case of `O=C(c1cccnc1-n1nccn1)N1C2CCC1C(Oc1ccc(C(F)(F)F)cn1)C2` (racemic) [Example 426], the Ki in assay [1] is greater than 10000 nM; in assay [2], 5400 nM.

Turning to `Cc1ccc(C(=O)N2C3CCC2C(Oc2cnc(C(F)(F)F)cn2)C3)c(-n2nccn2)n1` (racemic) [Example 446, (R/S)-(6-methyl-2-(2H-1,2,3-triazol-2-yl)pyridin-3-yl)(2-((5-(trifluoromethyl)pyrazin-2-yl)oxy)-7-azabicyclo[2.2.1]heptan-7-yl)methanone], the Ki was greater than 10000 nM in assay [1] (Table 2, further testing, averages from 2-20 runs, read-out: hOX2 Ki) and 4700 nM in assay [2] (Table 2, further testing, averages from 2-20 runs, read-out: rOX1 Ki).

Consider `Cc1cnc(-c2ncccn2)c(C(=O)N2[C@@H]3CC[C@H]2[C@H](Nc2cnc(C(F)(F)F)cn2)C3)c1` [Example 404, (5-methyl-2-(pyrimidin-2-yl)pyridin-3-yl)((1S,2R,4R)-2-((5-(trifluoromethyl)pyrazin-2-yl)amino)-7-azabicyclo[2.2.1]heptan-7-yl)methanone], for which the Ki was greater than 10000 nM in assay [1] (setting [4]) and 419 nM in assay [2] (setting [3]).

In the case of `Cc1ccc(C(=O)N2C3CCC2C(Oc2ccc(C(F)(F)F)cn2)C3)c(-n2nccn2)n1` (racemic) [Example 427], the inhibition constant Ki is greater than 10000 nM in assay [1] (setting [4]) and 560 nM in assay [2].

Consider `O=C(c1cccc(F)c1-n1ccnn1)N1C2CCC1C(Oc1ccc(C(F)(F)F)cn1)C2` (racemic) [Example 424], for which the inhibition constant Ki is greater than 10000 nM in assay [1] (setting [4]) and 2700 nM in assay [2] (setting [3]).

Take `COc1c(F)cccc1C(=O)N1C2CCC1C(Nc1ccc(F)cn1)C2` (racemic) [Example 237, (±)-(3-fluoro-2-methoxyphenyl)(2-((5-fluoropyridin-2-yl)amino)-7-azabicyclo[2.2.1]heptan-7-yl)methanone]: the inhibition constant (Ki) in assay [2] (setting [3]) is greater than 1000 nM.

For `O=C(c1cc(F)ccc1-c1ncccn1)N1C2CCC1C(COc1ccc(F)cn1)C2` (racemic) [Example 32, (4)-(5-fluoro-2-(pyrimidin-2-yl)phenyl)(2-(((5-fluoropyridin-2-yl)oxy)methyl)-7-azabicyclo[2.2.1]heptan-7-yl)methanone], the inhibition constant Ki in assay [1] (human orexin 2 receptor, Table 2, averages of 2-20 runs, read-out: hOX2 Ki) came out at 130 nM.

In assay [1], `O=C(c1ccccc1-c1cccs1)N1C2CCC1C(COc1ccc(F)cn1)C2` (racemic) [Example 11, (±)-(2-(((5-fluoropyridin-2-yl)oxy)methyl)-7-azabicyclo[2.2.1]heptan-7-yl)(2-(thiophen-2-yl)phenyl)methanone] registered a Ki of 13 nM.

The values above are taken from patent US9637496B2, “Substituted 7-azabicycles and their use as orexin receptor modulators” (priority 2013, dated 2017).
